The results in this text go back to patent EP0177414A1, “Jodized triaminobenzene compounds, process for their preparation and their use in contrast products” (GUERBET S.A., priority 1984, dated 1986).

Series [1] in a line: Stability to sterilisation. The class given is physicochemical. Particulars: treated at 121 °C for 10 mn.
The nature of series [2]: Osmolality by cryoscopy (FISKE-OS osmometer). It is filed as physicochemical. An excerpt:
(§1) - l'osmolalité exprimée en mosmoles par kg, est déterminée par cryoscopie à l'aide d'un osmomètre de type FISKE-OS Les résultats sont donnés dans le tableau suivant où l'on a également donné 1a solubilité des composés

A short description of another series: Solubility. It is filed as physicochemical. Particulars: read-out: Solubilité.
Text: as §1

Series [3] in a line: Neurotoxicity: acute toxicity by intracerebral administration. More on the design: species or system souris. Particulars: mouse, in vivo, female SWISS OF1 mice, toxicity noted 7 days after administration, read-out: DL50 IC. An excerpt:
- la toxicité aiguë des composés a été déterminée sur souris femelles (poids 20 g) de souche SWISS OF1 par administration intra-cérébrale selon la technique décrite par HOLEY et Mc CQRMICK dans :
Pharmacological effects produced by intracerebral injection of drugs in the conscious mouse BRIT.J.PHARMACOL. 12, 2. 1957.
5 animaux sont utilisés par dose, les volumes administrés sont de 0,05 cm^3 - 0,07 cm^3 - 0,10 cm^3 par souris soit 2,5 - 3,5 et 5 cm^3 par kg, avec des vitesses d'injection lentes.
La toxicité (DL50) est notée 7 jours après l'administration. 2) Osmolalité

Converted amounts (≈) assume the structure as drawn.

On to `CC(=O)N(CC(O)CO)c1c(I)c(N(CC(O)CO)C(C)=O)c(I)c(N(CC(O)CO)C(C)=O)c1I` (centres unmarked) [Exemple 3, 2,4,6-triiodo-1,3,5-tris [N-(2,3-dihydroxy propyl)acétamido]benzène], for which the “stables à la stérilisation” value in series [1] is “ne présentent pas de modifications”. This compound yielded an Osmolalité in series [2] of 630 mosmol par kg. Also, in “Solubility”, the solubility was 1000 mM (≈ 849 mg/mL). Further, the LD50 at 168 h in series [3] was 4000 µmol/kg.
On to `COCC(=O)Nc1c(I)c(N(CC(O)CO)C(C)=O)c(I)c(N(CC(O)CO)C(C)=O)c1I` (centres unmarked) [Exemple 8], for which the “stables à la stérilisation” value in series [1] is recorded as “ne présentent pas de modifications”. In addition, the solubility in the series “Solubility” was 940 mM (≈ 757 mg/mL). Further, in series [3], the LD50 at 168 h was 3300 µmol/kg.
For the compound `CC(=O)N(CC(O)CO)c1c(I)c(NC(=O)C(C)O)c(I)c(N(CC(O)CO)C(C)=O)c1I` (centres unmarked) [Exemple 9, 2,4,6-triiodo-1-(2-hydroxypropionyl-amino)-3,5-bis [N-(2,3-dihydroxy propyl)acétamido]benzène], the “stables à la stérilisation” value in series [1] is given as “ne présentent pas de modifications”. The same compound showed an Osmolalité in series [2] of 690 mosmol par kg. Also, the solubility in the series “Solubility” was determined as 1000 mM (≈ 805 mg/mL). The LD50 at 168 h in series [3] was determined as 3500 µmol/kg.
